Measurements taken from patent publication US4343812A, “Antidepressant 2-amino-and-2-(substituted amino)-cis-hexahydro-carbazoles, compositions and use” (E. I. Du Pont de Nemours and Company, priority 1980, dated 1982).
Structures can show the parent of a compound that is named as a salt. Where two headings read alike, the source gives them in different places.

Assays:
[1] = prior art; cited from earlier work
dogs = settings: prior art; cited from earlier work
[2] = prior art; cited from earlier work; remark: listed apart in the source
[3] = system: tetrabenazine-induced sedation and depression in mice; assay: Antagonism of tetrabenazine-induced depression in mice (prevention of ptosis and exploratory loss), orally at 1 hour post-drug; assay type: in vivo, mice (Carworth CF1 S female); settings: Mus musculus, oral, tetrabenazine 32 mg/kg intraperitoneally 30 minutes after drug
Experimental: (Everett, "The Dopa Response Potentiation Test and Its Use in Screening for Antidepressant Drugs", pp. 164-167 in "Antidepressant Drugs" [Proceedings of the First International Symposium], S. Garattini and M. N. G. Dukes, eds., 1967). Groups of 10 Carworth CF1 S female mice, 18-21 g each, were fasted 1.5 hours and were intubated with antagonist compounds at oral doses of 0, 5, 25, and 125 mg/kg or 0, 1, 3, 9, 27, and 81 mg/kg in 0.20 ml of 1% Methocel (methylcellulose). The mice were challenged 30 minutes later with tetrabenazine (as the methane-sulfonate), 32 mg/kg intraperitoneally (dissolved in 0.20 ml 0.05 M KCl at pH 2.0). One hour after antagonist (30 minutes after tetrabenazine), the mice were examined for signs of exploratory activity and ptosis (eyelid closure). Normal exploratory activity (relief from sedation) was recorded when a mouse lifted by the tail from a group of 10 in a testing box and placed on a stainless steel testing box lid (12.5"×8" with 0.33" mesh) either turned its head horizontally 30° in both directions or moved to the edge of the screen within 10 seconds after being placed on the screen. Relief from ptosis was recorded when exactly two seconds after placing the mouse facing the observer, lid closure was less than 50% in both eyes. For comparison, the marketed antidepressant amitriptylene was also tested, and an ED50 (effective dose in 50% of the cases) was determined. The lower the ED50, the better the antidepressant.

[4] = read-out: ED50 For Prevention of Exploratory Loss
[5] = read-out: ED50 For Prevention of Ptosis

Structure (SMILES) | analgetic and psychotropic activity [1] | cardiotonic effects (dogs) | antidepressant activity [2] | ED50 [3, 4] [mg/kg] | ED50 [3, 5] [mg/kg]
CN(C)C1CCc2[nH]c3ccccc3c2C1 (stereo not drawn) | analgetic and psychotropic activity | – | – | – | –
CN(C)C1CCc2[nH]c3cc(O)ccc3c2C1 (stereo not drawn) | – | cardiotonic effects | – | – | –
CNCCCC1CN(c2ccccc2)c2ccccc21 (stereo not drawn) | – | – | antidepressant activity | – | –
CCCCCOc1ccc2c(c1)N[C@@H]1CC(NC(C)=O)CC[C@H]21 (stereo partly drawn) [Compound 1L] | – | – | – | 2 | 2
CC(=O)NC1CC[C@@H]2c3ccccc3N[C@@H]2C1 (stereo partly drawn) [Compound 1a, N-(cis-1,3,4,4a,9,9a-hexahydro-2H-carbazol-2-yl)acetamide hydrochloride] | – | – | – | 2.3 | 0.7
CC(=O)NC1CC[C@@H]2c3cc(F)ccc3N[C@@H]2C1 (stereo partly drawn) [Compound 1b] | – | – | – | 4.2 | 2.7
CC(=O)NC1CC[C@@H]2c3cc(Cl)ccc3N[C@@H]2C1 (stereo partly drawn) [Compound 1c] | – | – | – | 14 | 3.3
CC(=O)NC1CC[C@@H]2c3cc(Br)ccc3N[C@@H]2C1 (stereo partly drawn) [Compound 1d] | – | – | – | 3.3 | 2.1
CC(=O)NC1CC[C@@H]2c3cc(C)ccc3N[C@@H]2C1 (stereo partly drawn) [Compound 1e] | – | – | – | 34 | 16
COc1ccc2c(c1)[C@H]1CCC(NC(C)=O)C[C@H]1N2 (stereo partly drawn) [Compound 1f] | – | – | – | 27 | 27
CC(=O)NC1CC[C@@H]2c3ccc(O)cc3N[C@@H]2C1 (stereo partly drawn) [Compound 1g] | – | – | – | 15.6 | 8.1
COc1ccc2c(c1)NC1CC(NC(C)=O)CCC21 (stereo not drawn) [Compound 1h] | – | – | – | 4.2 | 2.2
CCOc1ccc2c(c1)N[C@@H]1CC(NC(C)=O)CC[C@H]21 (stereo partly drawn) [Compound 1i] | – | – | – | 12.7 | 8.9
CCCOc1ccc2c(c1)N[C@@H]1CC(NC(C)=O)CC[C@H]21 (stereo partly drawn) [Compound 1j] | – | – | – | 0.99 | 0.79
CCCCOc1ccc2c(c1)N[C@@H]1CC(NC(C)=O)CC[C@H]21 (stereo partly drawn) [Compound 1k] | – | – | – | 0.35 | 0.22
CCCCCCOc1ccc2c(c1)N[C@@H]1CC(NC(C)=O)CC[C@H]21 (stereo partly drawn) [Compound 1m] | – | – | – | 27 | 27
CC(=O)NC1CCC2c3ccc(OCc4ccccc4)cc3NC2C1 (stereo not drawn) [Compound 1n] | – | – | – | 7.2 | 6.5
CC(=O)NC1CC[C@@H]2c3ccccc3N(C)[C@@H]2C1 (stereo partly drawn) [Compound 1o, N -(cis-1,3,4,4a,9,9a-hexahydro-9-methyl-2H-carbazol-2-yl)acetamide] | – | – | – | 27 | 3.7
O=CNC1CCC2c3ccccc3NC2C1 (stereo not drawn) [Compound 1p] | – | – | – | 21 | 21

Structure (SMILES) | analgetic and psychotropic activity [1] | cardiotonic effects (dogs) | antidepressant activity [2] | ED50 [3, 4] [mg/kg] | ED50 [3, 5] [mg/kg]
CCC(=O)NC1CCC2c3ccccc3NC2C1 (stereo not drawn) [Compound 1q] | – | – | – | 18 | 1.7
CCCCC(=O)NC1CCC2c3ccccc3NC2C1 (stereo not drawn) [Compound 1r] | – | – | – | 7.5 | 6.5
CCOC(=O)NC1CCC2c3ccccc3NC2C1 (stereo not drawn) [Compound 1s] | – | – | – | 4 | 4
COC(=O)NC1CCC2c3ccccc3NC2C1 (stereo not drawn) [Compound 1t] | – | – | – | 9.7 | 5.2
NC1CCC2c3ccccc3NC2C1 (stereo not drawn) [Compound 1u] | – | – | – | 0.75 | 0.57
CNC1CCC2c3ccccc3NC2C1 (stereo not drawn) [Compound 1v] | – | – | – | 3 | 2.4
CCNC1CCC2c3ccccc3NC2C1 (stereo not drawn) [Compound 1w] | – | – | – | 96 | 68
CN(C)C1CCC2c3ccccc3NC2C1 (stereo not drawn) [Compound 1x] | – | – | – | 41 | 37
CCN1c2ccccc2[C@H]2CCC(NC(C)=O)C[C@H]21 (stereo partly drawn) [Compound 1y, N-(cis-9-ethyl-1,3,4,4a,9,9a-hexahydro-2H-carbazol-2-yl) acetamide] | – | – | – | 5.2 | 4.7
CCOc1ccc2c3c([nH]c2c1)CC(NC(C)=O)CC3 (stereo not drawn) [Compound 2L, N-(7-ethoxy-1,3,4,9-tetrahydro-2H-carbazol-2-yl)acetamide] | – | – | – | 2 | 2
CC(=O)NC1CCc2c([nH]c3ccccc23)C1 (stereo not drawn) [Compound 2a, N-(1,3,4,9-tetrahydro-2H-carbazol-2-yl)acetamide] | – | – | – | 2.4 | 1.1
CC(=O)NC1CCc2c([nH]c3ccc(F)cc23)C1 (stereo not drawn) [Compound 2b, N-(6-fluoro-1,3,4,9-tetrahydro-2H-carbazol-2-yl)acetamide] | – | – | – | 2.4 | 0.7
CC(=O)NC1CCc2c([nH]c3ccc(Cl)cc23)C1 (stereo not drawn) [Compound 2c] | – | – | – | 6.5 | 2.4
CC(=O)NC1CCc2c([nH]c3ccc(Br)cc23)C1 (stereo not drawn) [Compound 2d, N-(6-bromo-1,3,4,9-tetrahydro-2H-carbazol-2-yl)acetamide] | – | – | – | 17.4 | 10
CC(=O)NC1CCc2c([nH]c3c(F)cccc23)C1 (stereo not drawn) [Compound 2e] | – | – | – | 19.7 | 14
CC(=O)NC1CCc2c([nH]c3cc(Cl)cc(Cl)c23)C1 (stereo not drawn) [Compound 2f] | – | – | – | 4.7 | 3.3
CC(=O)NC1CCc2c([nH]c3ccc(C)cc23)C1 (stereo not drawn) [Compound 2g] | – | – | – | 7.2 | 3
COc1ccc2[nH]c3c(c2c1)CCC(NC(C)=O)C3 (stereo not drawn) [Compound 2h, N-(1,3,4,9-tetrahydro-6-methoxy-2H-carbazol-2-yl)acetamide] | – | – | – | 6.5 | 5.8
COc1ccc2c3c([nH]c2c1)CC(NC(C)=O)CC3 (stereo not drawn) [Compound 2i, N-(1,3,4,9-tetrahydro-7-methoxy-2H-carbazol-2-yl)acetamide] | – | – | – | 0.9 | 0.8

Structure (SMILES) | analgetic and psychotropic activity [1] | cardiotonic effects (dogs) | antidepressant activity [2] | ED50 [3, 4] [mg/kg] | ED50 [3, 5] [mg/kg]
CCCCOc1ccc2c3c([nH]c2c1)CC(NC(C)=O)CC3 (stereo not drawn) [Compound 2j, N-(7-n-butyloxy-1,3,4,9-tetrahydro-2H-carbazol-2-yl)acetamide] | – | – | – | 0.57 | 0.51
CC(=O)NC1CCc2c([nH]c3cc(O)ccc23)C1 (stereo not drawn) [Compound 2k, N-(1,3,4,9-tetrahydro-7-hydroxy-2H-carbazol-2-yl)acetamide] | – | – | – | > 125 | > 125
CCCOc1ccc2c3c([nH]c2c1)CC(NC(C)=O)CC3 (stereo not drawn) [Compound 2m] | – | – | – | 0.6 | 0.6
CCCCCOc1ccc2c3c([nH]c2c1)CC(NC(C)=O)CC3 (stereo not drawn) [Compound 2n] | – | – | – | 4.3 | 2.7
CCCCCCOc1ccc2c3c([nH]c2c1)CC(NC(C)=O)CC3 (stereo not drawn) [Compound 2o] | – | – | – | 12 | 14
CC(=O)NC1CCc2c([nH]c3cc(OCc4ccccc4)ccc23)C1 (stereo not drawn) [Compound 2p] | – | – | – | 6.5 | 6.5
CC(=O)NC1CCc2c(n(C)c3ccccc23)C1 (stereo not drawn) [Compound 3L, N-(1,3,4,9-tetrahydro-9-methyl-2H-carbazol-2-yl)acetamide] | – | – | – | 11.2 | 9
Cl.NC1CCc2c([nH]c3ccccc23)C1 (stereo not drawn) [Compound 3a, 2,3,4,9-Tetrahydro-1H-carbazol-2-amine hydrochloride] | – | – | – | 8 | 4
O=CNC1CCc2c([nH]c3ccccc23)C1 (stereo not drawn) [Compound 3b, N-(1,3,4,9-tetrahydro-2H-carbazol-2-yl)formamide] | – | – | – | > 125 | 84
CCC(=O)NC1CCc2c([nH]c3ccccc23)C1 (stereo not drawn) [Compound 3c, N-(1,3,4,9-tetrahydro-2H-carbazol-2-yl)propanamide] | – | – | – | > 81 | 67
CCCCC(=O)NC1CCc2c([nH]c3ccccc23)C1 (stereo not drawn) [Compound 3d] | – | – | – | > 81 | > 81
CCOC(=O)NC1CCc2c([nH]c3ccccc23)C1 (stereo not drawn) [Compound 3e, (1,3,4,9-tetrahydro-2H-carbazol-2-yl)carbamic acid, ethyl ester] | – | – | – | > 81 | 40
COC(=O)NC1CCc2c([nH]c3ccccc23)C1 (stereo not drawn) [Compound 3f] | – | – | – | > 81 | > 81
CCOC(=O)N(C)C1CCc2c([nH]c3ccccc23)C1 (stereo not drawn) [Compound 3g, Methyl(1,3,4,9-tetrahydro-2H-carbazol-2-yl)carbamic acid, ethyl ester] | – | – | – | 27 | 7.8
CC(=O)N(C)C1CCc2c([nH]c3ccccc23)C1 (stereo not drawn) [Compound 3h, N-(1,3,4,9-tetrahydro-2H-carbazol-2-yl)-N-methylacetamide] | – | – | – | > 125 | > 125
CCNC1CCc2c([nH]c3ccccc23)C1.Cl (stereo not drawn) [Compound 3i, N-ethyl-2,3,4,9-tetrahydro-1H-carbazol-2-amine hydrochloride] | – | – | – | 27 | 27
CNC1CCc2c([nH]c3ccccc23)C1.Cl (stereo not drawn) [Compound 3j, 2,3,4,9-Tetrahydro-N-methyl-1H-carbazol-2-amine hydrochloride] | – | – | – | 32 | 12
CN(C)C1CCc2c([nH]c3ccccc23)C1 (stereo not drawn) [Compound 3k] | – | – | – | 39 | 11.4
CN(C)CCC=C1c2ccccc2CCc2ccccc21 [amitriptyline, reference compound] | – | – | – | 2.6 | 1.2
